# From patent US20250171430A1, “PYRAZOLYL COMPOUNDS AS KV7 CHANNEL ACTIVATORS” (Biohaven Therapeutics Ltd., priority 2022, published 2025)
# Molecular target: T1, Kv7.2/7.3 (Homo sapiens, UniProt O43525+O43526)
# T1 construct: Kv7.2 tetracycline-induced, Kv7.3 constitutive
# Experiment: Kv7.2/7.3 Activation Assay (Thallium Flux Assay)
# Assay type: cell-based
# Settings: hKV7.2/7.3 cell line; test compound at single concentration of 10 μM; fluorescence at 90 sec normalized to positive control (retigabine, 30 μM)
# Outline: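 Human Kv7.2/7.3 cells with Kv7.2 induced overnight by 10 ng/mL tetracycline were loaded with FluxOR II Green for 1 h at 37 °C. Compounds were tested at 10 μM in 0.1% DMSO/extracellular solution, pH 7.4. Thallium/potassium stimulus was added after a 15 s baseline, and 90 s fluorescence (ex 475/em 530 nm) was normalized to 30 μM retigabine.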
row,Structure (SMILES),Kv7.2/7.3 Activity
1,"Cn1nc(NC(=O)C[C@H]2CC(F)(F)C2(F)F)c(C2CCC2)c1C1CCCCC1 [Compound 67, (S)-N-(4-cyclobutyl-5-cyclohexyl-1-methyl-1H-pyrazol-3-yl)-2-(2,2,3,3-tetrafluorocyclobutyl)acetamide]",+ (“+” Moderate Activity 0.15-0.7)
2,"Cn1nc(NC(=O)CC(C)(C)C(F)(F)F)c(C2CCC2)c1C1CCCCC1 [Compound 68, N-(4-cyclobutyl-5-cyclohexyl-1-methyl-1H-pyrazol-3-yl)-4,4,4-trifluoro-3,3-dimethylbutanamide]",++ (“++” High Activity ≥ 0.7)
3,"Cn1nc(NC(=O)CC2(C(F)(F)F)CC2)c(C2CCC2)c1C1CCCCC1 [Compound 69, N-(4-cyclobutyl-5-cyclohexyl-1-methyl-1H-pyrazol-3-yl)-2-(1-(trifluoromethyl)cyclopropyl)acetamide]",+ (“+” Moderate Activity 0.15-0.7)
4,"Cn1nc(NC(=O)CC2CC(F)(F)C2)c(C2CCC2)c1C1CCCCC1 [Compound 70, N-(4-cyclobutyl-5-cyclohexyl-1-methyl-1H-pyrazol-3-yl)-2-(3,3-difluorocyclobutyl)acetamide]",++ (“++” High Activity ≥ 0.7)
5,"Cn1nc(NC(=O)CC2(O)CCCC2)c(C2CCC2)c1-c1ccc(OC(F)(F)F)cc1 [Compound 71, N-(4-cyclobutyl-1-methyl-5-(4-(trifluoromethoxy)phenyl)-1H-pyrazol-3-yl)-2-(1-hydroxycyclopentyl)acetamide]",++ (“++” High Activity ≥ 0.7)
6,"Cn1nc(NC(=O)CC2CC(F)(F)C2)c(C2CCC2)c1-c1ccc(OC(F)(F)F)cc1 [Compound 72, N-(4-cyclobutyl-1-methyl-5-(4-(trifluoromethoxy)phenyl)-1H-pyrazol-3-yl)-2-(3,3-difluorocyclobutyl)acetamide]",++ (“++” High Activity ≥ 0.7)
7,"Cn1nc(NC(=O)CC2(O)CCCC2)c(C2CCC2)c1-c1ccc(F)cc1 [Compound 73, N-(4-cyclobutyl-5-(4-fluorophenyl)-1-methyl-1H-pyrazol-3-yl)-2-(1-hydroxycyclopentyl)acetamide]",++ (“++” High Activity ≥ 0.7)
8,"Cn1nc(NC(=O)CC2CC(F)(F)C2)c(C2CCC2)c1-c1ccc(F)cc1 [Compound 74, N-(4-cyclobutyl-5-(4-fluorophenyl)-1-methyl-1H-pyrazol-3-yl)-2-(3,3-difluorocyclobutyl)acetamide]",++ (“++” High Activity ≥ 0.7)
9,"CCOC(=O)Nc1nn(C)c(-c2ccc(F)cc2)c1C1CCC1 [Compound 75, ethyl (4-cyclobutyl-5-(4-fluorophenyl)-1-methyl-1H-pyrazol-3-yl)carbamate]",+ (“+” Moderate Activity 0.15-0.7)
10,"O=C(CC1(C(F)(F)F)CC1)Nc1nn(CCO)c(Cc2ccccc2)c1C1CCC1 [Compound 76, N-(5-benzyl-4-cyclobutyl-1-(2-hydroxyethyl)-1H-pyrazol-3-yl)-2-(1-(trifluoromethyl)cyclopropyl)acetamide]",++ (“++” High Activity ≥ 0.7)
11,"Cn1nc(NC(=O)CC2(C(F)(F)F)CC2)c(C2CCC2)c1CC1CC1 [Compound 79, N-(4-cyclobutyl-5-(cyclopropylmethyl)-1-methyl-1H-pyrazol-3-yl)-2-(1-(trifluoromethyl)cyclopropyl)acetamide]",++ (“++” High Activity ≥ 0.7)
12,"Cn1nc(NC(=O)CC2CC(F)(F)C2)c(C2CCC2)c1CC1CC1 [Compound 80, N-(4-cyclobutyl-5-(cyclopropylmethyl)-1-methyl-1H-pyrazol-3-yl)-2-(3,3-difluorocyclobutyl)acetamide]",++ (“++” High Activity ≥ 0.7)
13,"Cn1nc(NC(=O)CC2(O)CCCC2)c(C2CCC2)c1CC1CC1 [Compound 81, N-(4-cyclobutyl-5-(cyclopropylmethyl)-1-methyl-1H-pyrazol-3-yl)-2-(1-hydroxycyclopentyl)acetamide]",+ (“+” Moderate Activity 0.15-0.7)
14,"Cn1nc(NC(=O)CC2(C(F)(F)F)CCC2)c(C2CCC2)c1-c1ccc(OC(F)(F)F)cc1 [Compound 82, N-(4-cyclobutyl-1-methyl-5-(4-(trifluoromethoxy)phenyl)-1H-pyrazol-3-yl)-2-(1-(trifluoromethyl)cyclobutyl)acetamide]",++ (“++” High Activity ≥ 0.7)
15,"Cn1nc(NC(=O)CC2(C(F)(F)F)CCC2)c(C2CCC2)c1-c1ccc(F)cc1 [Compound 83, N-(4-cyclobutyl-5-(4-fluorophenyl)-1-methyl-1H-pyrazol-3-yl)-2-(1-(trifluoromethyl)cyclobutyl)acetamide]",++ (“++” High Activity ≥ 0.7)
16,"Cn1nc(NC(=O)CC2COC2)c(C2CCC2)c1-c1ccc(OC(F)(F)F)cc1 [Compound 84, N-(4-cyclobutyl-1-methyl-5-(4-(trifluoromethoxy)phenyl)-1H-pyrazol-3-yl)-2-(oxetan-3-yl)acetamide]",− (“−” No Activity < 0.15)

row,Structure (SMILES),Kv7.2/7.3 Activity
1,"Cn1nc(NC(=O)CC2COC2)c(C2CCC2)c1-c1ccc(F)cc1 [Compound 85, N-(4-cyclobutyl-5-(4-fluorophenyl)-1-methyl-1H-pyrazol-3-yl)-2-(oxetan-3-yl)acetamide]",− (“−” No Activity < 0.15)
2,"Cn1nc(NC(=O)CC2COC2)c(C2CCC2)c1-c1cnc(C(F)(F)F)s1 [Compound 86, N-(4-cyclobutyl-1-methyl-5-(2-(trifluoromethyl)thiazol-5-yl)-1H-pyrazol-3-yl)-2-(oxetan-3-yl)acetamide]",− (“−” No Activity < 0.15)
3,"Cn1nc(NC(=O)CC2(O)CCC2)c(C2CCC2)c1-c1ccc(OC(F)(F)F)cc1 [Compound 87, N-(4-cyclobutyl-1-methyl-5-(4-(trifluoromethoxy)phenyl)-1H-pyrazol-3-yl)-2-(1-hydroxycyclobutyl)acetamide]",+ (“+” Moderate Activity 0.15-0.7)
4,"Cn1nc(NC(=O)CC2(C(F)(F)F)CCC2)c(C2CCC2)c1C1(C(F)(F)F)CCC1 [Compound 88, N-(4-cyclobutyl-1-methyl-5-(1-(trifluoromethyl)cyclobutyl)-1H-pyrazol-3-yl)-2-(1-(trifluoromethyl)cyclobutyl)acetamide]",++ (“++” High Activity ≥ 0.7)
5,"Cn1nc(NC(=O)CC2(C(F)(F)F)CC2)c(C2CCC2)c1C1(C(F)(F)F)CCC1 [Compound 89, N-(4-cyclobutyl-1-methyl-5-(1-(trifluoromethyl)cyclobutyl)-1H-pyrazol-3-yl)-2-(1-(trifluoromethyl)cyclopropyl)acetamide]",++ (“++” High Activity ≥ 0.7)
6,"Cn1nc(NC(=O)Cc2ccc(F)c(F)c2)c(C2CCC2)c1C1(C(F)(F)F)CCC1 [Compound 90, N-(4-cyclobutyl-1-methyl-5-(1-(trifluoromethyl)cyclobutyl)-1H-pyrazol-3-yl)-2-(3,4-difluorophenyl)acetamide]",+ (“+” Moderate Activity 0.15-0.7)
7,"Cn1nc(NC(=O)Cc2ccc(F)c(F)c2)c(C2CCC2)c1-c1ccc(F)cc1 [Compound 91, N-(4-cyclobutyl-5-(4-fluorophenyl)-1-methyl-1H-pyrazol-3-yl)-2-(3,4-difluorophenyl)acetamide]",+ (“+” Moderate Activity 0.15-0.7)
8,"Cn1nc(NC(=O)Cc2ccc(F)c(F)c2)c(C2CCC2)c1-c1ccc(OC(F)(F)F)cc1 [Compound 92, N-(4-cyclobutyl-1-methyl-5-(4-(trifluoromethoxy)phenyl)-1H-pyrazol-3-yl)-2-(3,4-difluorophenyl)acetamide]",++ (“++” High Activity ≥ 0.7)
9,"Cc1c(C2CCC2)c(NC(=O)CC2CC(F)(F)C2)nn1Cc1ccc(F)cc1 [Compound 93, N-(4-cyclobutyl-1-(4-fluorobenzyl)-5-methyl-1H-pyrazol-3-yl)-2-(3,3-difluorocyclobutyl)acetamide]",+ (“+” Moderate Activity 0.15-0.7)
10,"Cc1c(C2CCC2)c(NC(=O)CC(C)(C)C(F)(F)F)nn1Cc1ccc(F)cc1 [Compound 94, N-(4-cyclobutyl-1-(4-fluorobenzyl)-5-methyl-1H-pyrazol-3-yl)-4,4,4-trifluoro-3,3-dimethylbutanamide]",− (“−” No Activity < 0.15)
11,"Cc1c(C2CCC2)c(NC(=O)CC2(C(F)(F)F)CC2)nn1Cc1ccc(F)cc1 [Compound 95, N-(4-cyclobutyl-1-(4-fluorobenzyl)-5-methyl-1H-pyrazol-3-yl)-2-(1-(trifluoromethyl)cyclopropyl)acetamide]",− (“−” No Activity < 0.15)
12,"Cn1nc(NC(=O)CC(C)(C)C(F)(F)F)c(C2CCC2)c1-c1ccc(Cl)s1 [Compound 96, N-(5-(5-chlorothiophen-2-yl)-4-cyclobutyl-1-methyl-1H-pyrazol-3-yl)-4,4,4-trifluoro-3,3-dimethylbutanamide]",++ (“++” High Activity ≥ 0.7)
13,"Cn1nc(NC(=O)CC(C)(C)C(F)(F)F)c(C2CCC2)c1-c1ccc(F)cc1F [Compound 97, N-(4-cyclobutyl-5-(2,4-difluorophenyl)-1-methyl-1H-pyrazol-3-yl)-4,4,4-trifluoro-3,3-dimethylbutanamide]",++ (“++” High Activity ≥ 0.7)
14,"Cn1nc(NC(=O)CC2CC(F)(F)C2)c(C2CCC2)c1-c1ccc(F)cc1F [Compound 98, N-(4-cyclobutyl-5-(2,4-difluorophenyl)-1-methyl-1H-pyrazol-3-yl)-2-(3,3-difluorocyclobutyl)acetamide]",++ (“++” High Activity ≥ 0.7)
15,"Cn1nc(NC(=O)C[C@H]2CC2(F)F)c(C2CCC2)c1-c1ccc(F)cc1 [Compound 99, (S)-N-(4-cyclobutyl-5-(4-fluorophenyl)-1-methyl-1H-pyrazol-3-yl)-2-(2,2-difluorocyclopropyl)acetamide]",++ (“++” High Activity ≥ 0.7)
16,"Cn1nc(NC(=O)C[C@H]2CC2(C)C)c(C2CCC2)c1-c1ccc(F)cc1 [Compound 100, (R)-N-(4-cyclobutyl-5-(4-fluorophenyl)-1-methyl-1H-pyrazol-3-yl)-2-(2,2-dimethylcyclopropyl)acetamide]",++ (“++” High Activity ≥ 0.7)
